Reference: patent US20100196311A1, “METHODS AND COMPOSITIONS CONTAINING mTOR INHIBITORS FOR ENHANCING IMMUNE RESPONSES” (priority 2009, published 2010)

Assays:
mTOR = molecular target: T1, mTOR (Mus musculus, UniProt P26883+Q9JLN9); test: mTOR activity (mTOR, S6K and S6 phosphorylation by ICS) in stimulated OT-I cells; format: cell-based
T1 construct: endogenous in cells; host or cells: naive OT-I CD8+ T cells (TCR transgenic Rag2-/- mice) stimulated with Ag+B7.1 +/- IL-12
Description: FIG. 1. […] (A and B) OT-I cells stimulated with BOK (Ag+B7.1) (±) IL-12 were evaluated for (A) IFN-γ by ICS and (B) cytolytic activity (primary, 72 hr poststimulation; secondary, 24 hr postsecondary stimulation); ***p<0.0002. (C-E) OT-I cells stimulated with antigen (Ag) (the antigen is a peptide consisting of Ser Ile Ile followed by Asn Phe Glu which are followed by Lys and Lue (OVAp), used at 10 nM) plus B7.1 (100 μg/ml)(Ag+B7.1)(±) IL-12 (2 ng/ml) were evaluated by ICS at the indicated time points for (C) phosphorylated mTOR, (D) phosphorylated S6K, and (E) phosphorylated ribosomal S6. For mTOR inhibition, rapamycin (20 ng/ml) was added 30 min prior to addition of antigen, cytokine Data are representative of at least three independent experiments with similar outcomes. (Data are presented as mean±SEM.)
Stimulation of OT-1 Cells. Naive OT-I cells were stimulated with latex microspheres expressing H-2K^b/ovalbumin antigen and B7.1 according to known techniques. Naive OT-II cells were stimulated with anti-CD3-/anti-CD28-coated latex beads. In some experiments, the cell line derived from embryonic fibroblasts, namely, BOK (MEC.B7.SigOVA: expressing H-2K^b, OVAp and B7.1, were used as antigen-presenting cells to stimulate naive OT-I cells according to known techniques.
Although the kinase mTOR has been implicated as an integrator of various extracellular signals and a sensor for internal energy levels for determination of cell fate, the role for mTOR in integrating instructions that program naive CD8^+ T cells for type I effector differentiation is unclear. First, we tested the ability of Ag and B7.1 (Ag+B7.1) in the presence or absence of IL-12 to activate mTOR in OT-I cells at various time points after stimulation. Stimulation of naive OT-I cells with Ag+B7.1 induced mTOR phosphorylation (activation) by 2 hr, which was maximal at 12 hr and barely detectable by 48 hr (FIG. 1C). Remarkably, IL-12 addition enhanced Ag+B7.1-induced mTOR phosphorylation at 2 hr, which was maintained at 48 hr after stimulation (FIG. 1C). […] To verify that the induction of mTOR phosphorylation also led to its kinase activity, we monitored the kinetics of p70 S6K phosphorylation (Ser 371), a direct target of mTOR kinase activity. Although both Ag+B7.1 and Ag+B7.1 plus IL-12 induced similar amounts of S6K phosphorylation at 12 hr (maximal), the presence of IL-12 was able to sustain the S6K phosphorylation up to 48 hr (FIG. 10), in correlation with mTOR phosphorylation (FIG. 1C). […] The Ag+B7.1±IL-12 stimulation-induced S6K and S6 phosphorylation in OT-I cells was blocked by rapamycin (specific inhibitor of mTOR complex-1) (FIGS. 1D and 1E), thus confirming the ability of instructions to activate mTOR and its kinase activity in OT-I cells. […]

Eomesodermin = Eomesodermin mRNA and protein expression in OT-I cells; format: cell-based, mouse
Description: FIG. 5. Inhibition of mTOR Promotes Persistent Eomes Expression and Phenotypic Markers of Memory in CD8+T Cells. (A and B) OT-I cells stimulated with Ag+B7.1 (±) IL-12 and rapamycin were evaluated for (A) mRNA for Eomes at the indicated time points by RT-PCR and (B) Eomes protein expression at 72 hr by ICS. *p<0.03. (C) OT-I cells stimulated with Ag+B7.1 (±) IL-12 and rapamycin were transduced with T-bet-ER retroviral vector (±) 4-HT (10 nM) and evaluated for Eomes protein expression at 96 hr. (D) OT-I cells stimulated with Ag+B7.1 (±) IL-12 and rapamycin were evaluated for CD62L, CD69, KLRG1, CD127, and CD122 expression at 72 hr. (E) Bcl-2 and Bcl-3 mRNA expression at the indicated time points. (F and G) OT-I cells stimulated with Ag+B7.1 (±) IL-12 and rapamycin for 72 hr were washed twice and rested for an additional 72 hr in the presence of (F) IL-7 (10 ng/ml), *p<0.02, and (G) IL-15 (10 ng/ml). *p<0.02 and percent (%) cell recovery was calculated at 144 hr. […]
The closely related transcription factors T-bet and Eomesodermin are inversely regulated in effector and memory CD8^+T cells. To determine whether mTOR inhibition, which curtailed T-bet expression, led to induction of Eomesodermin, we systematically analyzed Eomesodermin mRNA expression in OT-I cells. […] We also determined whether IFN-α could also regulate mTOR activity and T-bet expression in OT-I cells.

[1] = IFN-α, Ag+B7.1-stimulated OT-I cells

mTOR activity (mTOR; [1]) | mTOR phosphorylation (mTOR; IL-12 (2 ng/ml) added to Ag+B7.1 stimulation, 2-48 hr) | Molecule | Eomesodermin expression (Eomesodermin; [1]) | Eomesodermin expression (Eomesodermin; IL-12 addition to Ag+B7.1 stimulation)
unable to enhance |  | IFN-α | increases | 
 | enhances and sustains | IL-12: interleukin-12, cytokine (signal 3) (protein, UniProt P43431 23-215; P43432 23-335, looked up) Interleukin-12 subunit alpha: RVIPVSGPARCLSQSRNLLKTTDDMVKTAREKLKHYSCTAEDIDHEDITRDQTSTLKTCLPLELHKNESCLATRETSSTTRGSCLPPQKTSLMMTLCLGSIYEDLKMYQTEFQAINAALQNHNHQQIILDKGMLVAIDELMQSLNHNGETLRQKPPVGEADPYRVKMKLCILLHAFSTRVVTINRVMGYLSSA Interleukin-12 subunit beta: MWELEKDVYVVEVDWTPDAPGETVNLTCDTPEEDDITWTSDQRHGVIGSGKTLTITVKEFLDAGQYTCHKGGETLSHSHLLLHKKENGIWSTEILKNFKNKTFLKCEAPNYSGRFTCSWLVQRNMDLKFNIKSSSSSPDSRAVTCGMASLSAEKVTLDQRDYEKYSVSCQEDVTCPTAEETLPIELALEARQQNKYENYSTSFFIRDIIKPDPPKNLQMKPLKNSQVEVSWEYPDSWSTPHSYFSLKFFVRIQRKKEKMKETEEGCNQKGAFLVEKTSTEVQCKGGNVCVQAQDRYYNSSCSKWACVPCRVRS |  | reduced
